From PMC5955835 (ACS chemical neuroscience, 2018)
Entries after “also recorded” stand apart in the source; their conditions may differ. Counter-ions that a name gives are not always drawn.

How the values were obtained:
[1] = system: VC4 and 5 neurons of C. elegans SC_APP model; assay: HCS microfluidic neurodegeneration assay in C. elegans SC_APP model; assay type: in vivo; settings: for effect on neurodegeneration of VC4 and 5 neurons in SC_APP model: D3 adult animals, liquid culture, doses 0.02, 0.2, 2 and 20 μM, vs vehicle-treated SC_APP (200 μM FUdR, 0.5% DMSO); for concentration of highest efficacy in protecting against neurodegeneration: SC_APP model, D3 animals, four doses 0.02-20 μM
[2] = system: transgenic APP mouse model; settings: listed as SAS-0132; cited from earlier work
[3] = system: VC4 and 5 neurons of SC_APP vem-1/PGRMC1 null C. elegans; settings: earlier work, SC_APP model; cited from earlier work

SMILES | effect on neurodegeneration of VC4 and 5 neurons in SC_APP model [1] | cognitive performance in transgenic AD mice [2] | PGRMC1 dependence of reduction of neurodegeneration [3] | concentration of highest efficacy in protecting against neurodegeneration [1] [µM]
CN1CCN(c2ccc3c(c2)[C@H]2C[C@@H]3CCN2C(=O)OCc2ccccc2)CC1 [Compound 1] | reduce neurodegeneration relative to the vehicle treated SC_APP group | improvement in cognitive performance; also recorded: efficacious | reduced neurodegeneration through a pathway dependent upon PGRMC1 | 
OC(CNc1ccccc1)Cn1c2ccc(Br)cc2c2cc(Br)ccc21 (stereo not drawn) [Compound P7C3, P7C3] |  |  |  | 0.2
COc1ccc(S(=O)(=O)Nc2cc(Cl)cc(Cl)c2OC)cc1N1CCNCC1 [SB399885, SB 399885 hydrochloride] | protected the cholinergic neurons of the SC_APP model |  |  | 20
Fc1ccc(-n2cc(CCCCN3CCC4(CC3)OCc3ccccc34)c3ccccc32)cc1 [Siramesine] | increase neurodegeneration after a dosing threshold is exceeded despite an initial decrease at lower dosages |  |  | 
C=C(c1ccc(C(=O)O)cc1)c1cc2c(cc1C)C(C)(C)CCC2(C)C [bexarotene] | protected the cholinergic neurons of the SC_APP model |  |  | 20
